Experimental data published in ChEMBL document CHEMBL4014333, “Discovery of Small Molecules for Repressing Cap-Independent Translation of Human Vascular Endothelial Growth Factor (hVEGF) as Novel Antitumor Agents” (J Med Chem, 2017).
The source made the active and inactive calls.

Legend:
[1] = species on record: Homo sapiens; test: Destabilization of human wild type internal ribosome entry site A RNA G-quadruplex expressed in MCF7 cells assessed as down regulation of VEGF-A translation at 1.5 uM after 24 hrs by dual-luciferase reporter gene assay relative to control; assay type: cell-based
[2] = species on record: Homo sapiens; test: Destabilization of human 5'-UGAAGAGUGUGAGUAGUA-3' RNA expressed in MCF7 cells assessed as down regulation of VEGF-A translation at up to 0.5 uM after 24 hrs by dual-luciferase reporter gene assay; assay type: cell-based
[3] = species on record: Homo sapiens; test: Destabilization of human wild type internal ribosome entry site A RNA G-quadruplex assessed as melting temperature at 5 uM by CD spectra method (reference value: 80.9 +/- 0.8 degreeC)
[4] = species on record: Homo sapiens; test: Destabilization of human wild type internal ribosome entry site A RNA G-quadruplex expressed in MCF7 cells assessed as down regulation of VEGF-A translation up to 0.5 uM after 24 hrs by dual-luciferase reporter gene assay relative to control; assay type: cell-based
[5] = species on record: Homo sapiens; test: Binding affinity to biotin-labeled human wild type internal ribosome entry site A RNA G-quadruplex by SPR analysis
[6] = Binding affinity to biotin-labeled DNA hairpin (unknown origin) by SPR analysis
[7] = species on record: Homo sapiens; test: Binding affinity to biotin-labeled human 5'-UGAUGAGUGUGAGGAGGA-3' RNA G-quadruplex by SPR analysis
[8] = tested on: MCF7; test: Antitumor activity against human MCF7 cells xenografted in nude Balb/c mouse assessed as tumor weight at 1 mg/kg, ip qd for 20 days; assay type: functional
[9] = species on record: Homo sapiens; test: Destabilization of human 5'-UGAAGAGUGUGAGUAGUA-3' RNA expressed in MCF7 cells assessed as down regulation of VEGF-A translation at up to 1.5 uM after 24 hrs by dual-luciferase reporter gene assay; assay type: cell-based

SMILES | Activity [5] | Activity [6] | Activity [7] | also measured
NCCOc1cc(C(=O)Nc2cc(OCCN)c3ccccc3n2)cc(C(=O)Nc2cc(OCCN)c3ccccc3n2)c1 | – | – | – | Activity [1]: inactive; Activity [2]: inactive; Tm [3]: > 76 °C
CN(C)CCCNC1C2=Nc3ccccc3C2=Nc2ccccc21 (stereo unspecified) | – | – | – | Activity [4]: inactive; Tm [3]: > 81 °C
CCN(CC)CCCNc1c2ccccc2[n+](C)c2c1oc1ccc(OCC3CC[N+](C)(C)CC3)cc12 | Active | Active | Active | –
CN1CCC(COc2ccc3oc4c(NCC(=O)NCC(=O)NC(CCCNC(=N)N)C(=O)NC(CC(=O)O)C(=O)O)c5ccccc5nc4c3c2)CC1 (stereo unspecified) | Active | Active | Active | –
COc1ccc2cc3[n+](cc2c1NCCCN1CCCC1)CCc1cc2c(cc1-3)OCO2 | Active | Active | Active | –
COc1cccc2c1C(=O)c1c(O)c3c(c(O)c1C2=O)C[C@@](O)(C(=O)CO)C[C@@H]3O[C@H]1C[C@H](N)[C@H](O)[C@H](C)O1 [DOXORUBICIN] | – | – | – | Activity [8]: 0.14 g
C[n+]1c2ccccc2c(NCCCN2CCOCC2)c2oc3ccc(OCC[N+]4(C)CCOCC4)cc3c21 | Active | Active | Active | –
CN(C)CCNc1c2ccccc2[n+](C)c2c1oc1ccc(OCC[N+]3(C)CCCCC3)cc12 | Active | Active | Active | –
CN(C)CCCNc1c2ccccc2[n+](C)c2c1[nH]c1ccc(F)cc12 | Active | Active | Active | –
CCN(CC)CCNc1c2ccccc2[n+](C)c2c1[nH]c1ccccc12 | Active | Active | Active | –
CCN(CC)CCNc1c2ccccc2[n+](C)c2c1oc1ccc(OCC3CC[N+](C)(C)CC3)cc12 | Active | Active | Active | –
NC(=O)c1ccccc1NC(=O)c1ccccc1[N+](=O)[O-] | – | – | – | Activity [9]: inactive

More lines, main results first:

Activity [5] | Activity [6] | Activity [7] | SMILES | also measured
Active | Active | Active | CN(C)CCNc1c2ccccc2[n+](C)c2c1oc1ccc(OCC[N+]3(C)CCOCC3)cc12 | –
Active | Active | Active | C[n+]1c2ccccc2c(NCCCO)c2[nH]c3ccccc3c21 | –
Active | Active | Active | CCN(CC)CCCNc1c2ccccc2[n+](C)c2c1oc1ccc(OCC[N+]3(C)CCCCC3)cc12 | –
Active | Active | Active | CCN(CC)CCCNc1c2ccccc2[n+](C)c2c1oc1ccc(OCC(=O)NCCCN(C)C)cc12 | –
Active | Active | Active | CN(C)CCCNC(=O)COc1ccc2oc3c(NCCCN(C)C)c4ccccc4[n+](C)c3c2c1 | –
